The numbers were not newly measured in patent US20030206884A1, “Embalming fluid” (AARD-BALM LIMITED, priority 2000, published 2003), which cites them from elsewhere.

In this series the test system is eyes, nose and throat.

Regarding `C=O` [formaldehyde], the “airborne concentration causing irritation of the eyes, nose and throat” value is “above 0.1 ppm”; the “airborne concentration that is a danger to life and health” value was 100 ppm.
